Columns and labels:
Type in all cases: in vivo
Broadleaf Weeds = assay: Pre-emergent application in combination with other herbicides, percent control of broadleaf weeds; settings: 62.5 g ai/ha
Method: (§1) All plants were grown in 10 cm square plastic pots which were filled with a sandy loam soil mix. For preemerge tests, seeds were planted one day prior to application of the test compounds. Immediately after application, test units of the pre-emerge applications were watered at the soil surface to incorporate the test materials. Subsequently, these test units were bottom-watered.
(§2) All test compounds were dissolved in acetone and applied to the test units in a volume of 187 l/ha. […] Plants were arranged on a shelf so that the top of the canopy (post-emerge) or top of the soil surface (pre-emerge) was 40-45 cm below the nozzle. Pressurized air was used to force the test solution through the nozzle as it was mechanically advanced (via electrically driven chain drive) over the top of all test plants/pots. This application simulates a typical commercial field herbicide application.
(§3) At 14 days after application of the test materials, phytotoxicity ratings were recorded. A rating scale of 0-100 was used as previously described in Research Methods in Weed Science, 2nd edition, B. Truelove, Ed., Southern Weed Science Society, Auburn University, Auburn, Ala., 1977. Briefly, “0” corresponds to no damage and “100” corresponds to complete death of all plants in the test unit. This scale was used both to determine efficacy against weed species and damage to crop species. Herbicide activity data for various compounds of this invention, which are shown by compound number in Tables 1-9, are shown in Tables 13 and 14.
(§4) (Note: Weed species abbreviations are from the Composite List of Weeds published by the Weed Science Society of America, 1989.)
The following examples illustrate the utility of combinations of compounds of this invention and existing herbicides. The methods used are identical to those for the application of single compounds except the commercial formulations of existing herbicides were added to the spray mixture in the appropriate amounts before spraying. […]
(§5) Combination Example 2. Pre-emergent Application of Compound 9-1 with Dimethenamid

Grass Weeds [1] = assay: Pre-emergent application in combination with other herbicides, percent control of grass weeds; settings: 62.5 g ai/ha
Method: as §1, §2, §3, §4
The following examples illustrate the utility of combinations of compounds of this invention and existing herbicides. The methods used are identical to those for the application of single compounds except the commercial formulations of existing herbicides were added to the spray mixture in the appropriate amounts before spraying.
Combination Example 1. Pre-emergent Application of Compound 9-1 with Metolachlor
as §5

Grass Weeds [2] = assay: Post-emergent application in combination with other herbicides, percent control of grass weeds; settings: 31.25 g ai/ha
Method: All test compounds were dissolved in acetone and applied to the test units in a volume of 187 l/ha. Test materials were applied at rates ranging from 125 g ai/ha to 1000 g ai/ha using a track sprayer equipped with a TJ8001E even flow flat fan spray nozzle. Plants were arranged on a shelf so that the top of the canopy (post-emerge) or top of the soil surface (pre-emerge) was 40-45 cm below the nozzle. Pressurized air was used to force the test solution through the nozzle as it was mechanically advanced (via electrically driven chain drive) over the top of all test plants/pots. This application simulates a typical commercial field herbicide application. In the post-emerge test, a commercial non-ionic surfactant was also included (0.25% v/v) to enhance wetting of the leaf surfaces Qf target plants at rates ranging from 63 g ai/ha to 1000 g ai/ha. For post-emerge tests, seeds were planted 8-21 days prior to the test to allow emergence and good foliage development prior to application of the test substances. At the time of the post-emerge application, plants of all species were usually at the 2-3 leaf stage of development. Post-emerge test units were always bottom-watered. At 14 days after application of the test materials, phytotoxicity ratings were recorded. A rating scale of 0-100 was used as previously described in Research Methods in Weed Science, 2nd edition, B. Truelove, Ed., Southern Weed Science Society, Auburn University, Auburn, Ala., 1977. Briefly, “0” corresponds to no damage and “100” corresponds to complete death of all plants in the test unit. This scale was used both to determine efficacy against weed species and damage to crop species. Herbicide activity data for various compounds of this invention, which are shown by compound number in Tables 1-9, are shown in Tables 13 and 14. […] (Note: Weed species abbreviations are from the Composite List of Weeds published by the Weed Science Society of America, 1989.) The following examples illustrate the utility of combinations of compounds of this invention and existing herbicides. The methods used are identical to those for the application of single compounds except the commercial formulations of existing herbicides were added to the spray mixture in the appropriate amounts before spraying. Combination Example 3. Post-emergent Application of Compound 9-1 with Nicosulfuron Combination Example 4. Postemergent Application of Compound 9-1 with Pyridate

Nn1c(C(F)(F)F)cc(=O)n(-c2cc(Oc3ncccc3[N+](=O)[O-])c(Cl)cc2F)c1=O [Compound 9-1, 1-amino-3-[4-chloro-2-fluoro-5-(3-nitro-2-pyridyloxy)phenyl]-6-trifluoromethyl-1,2,3,4-tetrahydropyrimidine-2,4-dione]
Percent Control of Broadleaf Weeds ABUTH (Broadleaf Weeds): 95% | Percent Control of Broadleaf Weeds ABUTH (Broadleaf Weeds; Combination Example 2): 95% | Percent Control of Broadleaf Weeds AMARE (Broadleaf Weeds): 100% | Percent Control of Broadleaf Weeds AMARE (Broadleaf Weeds; Combination Example 2): 100% | Percent Control of Broadleaf Weeds AMBEL (Broadleaf Weeds): 40% | Percent Control of Broadleaf Weeds AMBEL (Broadleaf Weeds; Combination Example 2): 40% | Percent Control of Broadleaf Weeds CASOB (Broadleaf Weeds): 10% | Percent Control of Broadleaf Weeds CASOB (Broadleaf Weeds; Combination Example 2): 10% | Percent Control of Broadleaf Weeds CHEAL (Broadleaf Weeds): 100% | Percent Control of Broadleaf Weeds CHEAL (Broadleaf Weeds; Combination Example 2): 100% | Percent Control of Broadleaf Weeds IPOHE (Broadleaf Weeds): 50% | Percent Control of Broadleaf Weeds IPOHE (Broadleaf Weeds; Combination Example 2): 50% | Percent Control of Grass Weeds DIGSA (Grass Weeds [1]): 20% | Percent Control of Grass Weeds DIGSA (Grass Weeds [1]; Combination Example 2): 20% | Percent Control of Grass Weeds ECHCG (Grass Weeds [1]): 0% | Percent Control of Grass Weeds ECHCG (Grass Weeds [1]; Combination Example 2): 0% | Percent Control of Grass Weeds SETVI (Grass Weeds [1]): 90% | Percent Control of Grass Weeds SETVI (Grass Weeds [1]; Combination Example 2): 90% | Percent Control of Grass Weeds SORHA (Grass Weeds [1]): 0% | Percent Control of Grass Weeds SORHA (Grass Weeds [1]; Combination Example 2): 0% | Percent Control of Grass Weeds DIGSA (Grass Weeds [2]): 10% | Percent Control of Grass Weeds DIGSA (Grass Weeds [2]; Combination Example 4): 10% | Percent Control of Grass Weeds ECHCG (Grass Weeds [2]): 0% | Percent Control of Grass Weeds ECHCG (Grass Weeds [2]; Combination Example 4): 0% | Percent Control of Grass Weeds SETVI (Grass Weeds [2]): 10% | Percent Control of Grass Weeds SETVI (Grass Weeds [2]; Combination Example 4): 10% | Percent Control of Grass Weeds SORHA (Grass Weeds [2]): 10% | Percent Control of Grass Weeds SORHA (Grass Weeds [2]; Combination Example 4): 10%

Reference: US6479435B1, “Diaryl ethers and processes for their preparation and herbicidal and desiccant compositions containing them” (ISK Americas Incorporated, priority 1997, dated 2002)
